Reference: patent US8975411B2, “Therapeutic agent for neurological diseases” (Neugen Pharma Inc., priority 2010, dated 2015)
Converted amounts (≈) assume the structure as drawn.

Legend:
[1] = tested on: Human neuroblastoma SH-SY5Y cells; experiment: Oxidative stress-mediated cell death suppressive (AOSCD) activity in differentiated nerve cells, menadione, AlamarBlue; assay type: cell-based; conditions: RA-differentiated SH-SY5Y cells, compound 24 hours before menadione, 4 hours oxidative stress treatment, read-out: ED50 (the source's name)
Experimental: A test was performed by using the same compounds as in Test Example 1. Human neuroblastoma SH-SY5Y cells (ATCC, CRL2266 strain) were cultured in DMEM medium (manufactured by Wako Pure Chemical Industries Ltd.) containing 10% FBS, 100 μg/mL streptomycin and 100 U/mL penicillin G. SH-SY5Y cells were suspended in a DMEM/10% FBS medium, seeded in a cell density of 0.75×10^4 cells/well in a 96-well microplate and cultured in the presence of 5% CO2 at 37° C. for 24 hours. Thereafter, the medium was exchanged with DMEM/10% FBS (DMEM/FBS/RA) medium containing 10 μM all-trans-retinoic acid (RA). At the fifth day, each compound was added so as to obtain 2, 4, 6, 8, 10, 20, 30, 40, 50, 60, 80 μM (final concentration) and culture was performed. Note that, in this experiment, a sample in which DMSO alone was added was used as a negative control.
After 24 hours, an oxidative stress agent, menadione, was added so as to obtain a final concentration of 0, 30, 40, 60 and 80 μM and culture was continued in the presence of 5% CO2 at 37° C. (oxidative stress treatment) Cells treated with a 0.1% Triton X-100/DMEM/FBS/RA medium in place of menadione was used as a blank in this assay. After an oxidative stress treatment for 4 hours, the medium was replaced with a medium containing 10% AlamarBlue and culture was performed in the presence of 5% CO2 at 37° C. Twelve hours later, fluorescent was measured at an excitation wavelength of 530 nm/detection wavelength of 580 nm by use of CYTOFLUOR (registered trade mark) Multi-Well Plate Reader Series 4000 to quantify oxidative stress-mediated cell death suppressive (AOSCD) activity. In accordance with a conventional method, ED50 (Effective Dose) (μM) was calculated.

[2] = Evaluation of solubility in the 1st fluid (pH1.2) of the Japanese pharmacopeia; assay type: physicochemical; conditions: 1st fluid (pH 1.2) of the Japanese Pharmacopeia, pH 1.2, simulated gastric fluid, thermodynamic from solid, 25° C.
Experimental: Using the same compounds as in Experimental Example 1, solubility in the 1st fluid (pH1.2) of the Japanese pharmacopeia was measured. The 1st fluid of the Japanese Pharmacopeia was prepared by dissolving sodium chloride in hydrochloric acid (7.0 mL) and water and adjusting the total amount to 1000 mL. The 1st fluid of the Japanese Pharmacopeia (0.6 mL) was poured in a tube and a compound was added until a precipitate was observed. Then, the tube was shaken at 25° C. for 24 hours (200 rotations/minute) to obtain a compound solution. The compound solution was added to a 96-well plate to which a 0.22 μm filter (manufactured by Millipore) was set and centrifugally filtrated (2700 rotations/minute, 10 minutes). Thereafter, the concentration of the compound in the filtrate was obtained from the peak area obtained by HPLC analysis. The solution for a calibration curve was prepared by dissolving a compound in DMSO.
(§1) HPLC analysis conditions will be described below.
Column: TSKgel ODS-80Tm, 4.6×150 mm (manufactured by Tohso Corporation)
Column temperature: 40° C.
Mobile phase: 20 mM sodium 1-decanesulfonate, 40 mM phosphoric acid, 0.2% trimethylamine/acetonitrile

[3] = Evaluation of blood-brain barrier permeability (concentration in brain after oral administration, HPLC); assay type: in vivo; conditions: male C57BL/6N mice, 100 mg/kg once orally, fasting
Experimental: For evaluation of blood-brain barrier permeability, pharmacokinetics (the concentration in brain) in mice was analyzed. In the test, male C57BL/6N mice (at 8 weeks of age) were used. Each compound was suspended in 0.5% sodium carboxymethylcellulose (CMC-Na). The dosage amount was 100 mg/kg per body weight of each mouse. Each compound was administered once orally under fasting conditions. At the time points of 30 minutes and one hour after administration, blood was collected from the heart of each mouse. Subsequently, perfusion was performed using physiological saline containing 10% heparin and thereafter the brain was removed. Serum was obtained by centrifuging the blood sample and brain was lyophilized with liquid nitrogen, both of which were stored at −80° C. until use.
Next, as a pre-treatment for HPLC analysis, deproteinization treatment was performed. Acetonitrile was added to the brain sample and homogenization treatment was performed to grind the brain. The resultant sample was centrifuged (10,000×g, 10 min, 4° C.) and the supernatant was collected, allowed to stand still at −80° C. for 10 minutes, thawed and then centrifuged again (10,000×g, 10 min, 4° C.). The obtained supernatant was dried under vacuum. The vacuum-dried sample was dissolved in a 10 mM phosphate buffer (pH7.0) containing 30-50% acetonitrile, allowed to stand still at −80° C. for 10 minute, thawed again and centrifuged at (10,000×g, 10 min, 4° C.) and the supernatant was collected. Furthermore, filtration treatment by a 0.45 μm filter and centrifugation (10,000×g, 4 min, 4° C.) were performed and subsequently filtration treatment by a 0.22 μm filter and centrifugation (10,000×g, 4 min, 4° C.) were performed. The supernatant was then collected and subjected to HPLC analysis. A standard curve was prepared by using the brain of the same type mouse to which none of the compounds was administered.
as §1
Column: CAPCELL PAK C18, 4.6 mm I.D.×150 mm (SHISEIDO)
Eluate: 10 mM phosphate buffer/acetonitrile (30-50%)
Dilution solution: 10 mM phosphate
buffer/acetonitrile (30-50%)

[4] = tested on: ALS-SOD1^H46R transgenic mice; experiment: In vivo drug efficacy test: survival period after the onset of disease; conditions: for survival period after the onset of disease: control 33.4±3.2 days; for survival benefit versus control group: 0.01, 0.1 and 1 mg/kg orally once per day from onset
Experimental: (§2) In this test, ALS-SOD1^H46R transgenic mice carrying and expressing ALS1 pathological SOD1 gene (SOD1^H46R) were used. The mice were housed at 23° C. with a 12 hours light/dark cycle. […] Each compound was dissolved in sterilized water, and subsequently an administration solution was prepared with physiological saline. The dose of each compound was 0.01 mg, 0.1 mg and 1 mg/5 ml/kg per body weight of each individual and the compounds were orally administered once per day until an individual dies (compound-administered group). Mice to which physiological saline (5 ml/kg) alone was administered were used as a control group. As an evaluation method for expression of a neurological sign, a balance beam test (a stainless steel bar of 50 cm in length and 0.9 cm in width) was used.
(§3) Each of the mice was subjected to the test and grade 3 was determined as onset of disease. The motor function of the mice in the compound-administered groups and the control group was evaluated based on a vertical pole test and footprint analysis.

[5] = tested on: ALS-SOD1^H46R transgenic mice; experiment: In vivo drug efficacy test: footprint analysis (ambulation); conditions: 22 weeks of age compared with 18 weeks of age, control showed abnormal ambulation
Experimental: as §2, §3
Mice of the administered groups and the control group were subject to footprint analysis at 18 weeks and 22 weeks of age. Blue ink and red ink were applied respectively to the front and hind paws of the test mouse and the mouse was then allowed to walk on paper. From the footprint, irregularity of walking was observed. Data was analyzed by use of GraphPad Prism 5 and SPSS 17.0.

[6] = tested on: ALS-SOD1^H46R transgenic mice; experiment: In vivo drug efficacy test: vertical pole test (motor function); conditions: 21 weeks of age compared with 17 weeks of age, control significantly reduced
Experimental: as §2, §3
The vertical pole test (stainless steel bar of 50 cm in length and 0.9 cm in width was used) was started when the test mice became 17 weeks of age and carried out once a week. Each mouse was given five trials (noted that a maximum value was 45 cm, and when a mouse reached the vertical ascending distance of 45 cm, the trial was terminated at that point). The maximum value of the 5 trials was defined as motor function value.

[7] = 0.01 mg/kg orally once per day from onset
[8] = 0.1 mg/kg orally once per day from onset
[9] = 1 mg/kg orally once per day from onset

Row | Compound | EC50 [1] | solubility at 24 h [2] | Amount of blood brain barrier permeation ([3]; 0.5 h after administration) | Amount of blood brain barrier permeation ([3]; 1 h after administration) | survival period after the onset of disease [4, 7] | survival period after the onset of disease [4, 8] | survival period after the onset of disease [4, 9] | survival benefit versus control group [4] | ambulation by footprint analysis [5, 7] | motor function by vertical pole test [6, 7] | ambulation by footprint analysis [5, 8] | motor function by vertical pole test [6, 8]
1 | Cc1cc(C)c(O[C@@H](C)C(=O)Nc2nc(-c3ccccn3)c[nH]2)c(C)c1 [Compound 11, (2S)-2-(mesityloxy)-N-[4-(pyridin-2-yl)-1H-imidazol-2-yl]propanamide] | 4 µM | 7980 µg/mL (≈ 22.8 mM) | 478 ng/100 μg | 372 ng/100 μg |  |  |  |  |  |  |  | 
2 | Cc1cc(C)c(OCC(=O)Nc2nc(-c3ccccn3)c[nH]2)c(C)c1 [Compound (Ie), 2-(mesityloxy)-N-[4-(pyridin-2-yl)-1H-imidazol-2-yl]acetamide, reference compound] | 6 µM | 610 µg/mL (≈ 1.81 mM) | 27 ng/100 μg | 8 ng/100 μg |  |  |  |  |  |  |  | 
3 | Cc1cc(C)c(NCC(=O)Nc2nc(-c3ccccn3)c[nH]2)c(C)c1 [Compound 22, 2-(mesitylamino)-N-(4-pyridin-2-yl-1H-imidazol-2-yl)acetamide] | 21 µM | 1810 µg/mL (≈ 5.4 mM) | 108 ng/100 μg | 16 ng/100 μg |  |  |  |  |  |  |  | 
4 | Cc1cc(C)c(OCC(=O)Nc2nc(-c3ccccn3)cs2)c(C)c1 [Compound (X), 2-(mesityloxy)-N-(4-pyridin-2-yl-1,3-thiazol-2-yl)acetamide, reference compound] | 20 µM | 30 µg/mL (≈ 0.0849 mM) | 62 ng/100 μg | 26 ng/100 μg |  |  |  |  |  |  |  | 
5 | Cc1cc(C)c(OC(C)(C)C(=O)Nc2nc(-c3ccccn3)c[nH]2)c(C)c1 [Compound 12, 2-(mesityloxy)-2-methyl-N-[4-(pyridin-2-yl)-1H-imidazol-2-yl]propanamide] | 4 µM | 3760 µg/mL (≈ 10.3 mM) | 258 ng/100 μg | 133 ng/100 μg | 36.2 ± 4.0 days | 38.8 ± 4.3 days | 41.0 ± 7.9 days | significant survival benefit | no significant change of ambulation | relatively retained |  | 
6 | Cc1cc(C)c(O[C@H](C)C(=O)Nc2nc(-c3ccccn3)c[nH]2)c(C)c1 [Compound 10, (2R)-2-(mesityloxy)-N-[4-(pyridin-2-yl)-1H-imidazol-2-yl]propanamide] | 8 µM | 7880 µg/mL (≈ 22.5 mM) | 256 ng/100 μg | 225 ng/100 μg | 43.7 ± 7.5 days | 47.7 ± 6.9 days | 41.8 ± 10.5 days | significant survival benefit |  |  | no significant change of ambulation | relatively retained
7 | Cc1cc(C)c(N(C)CC(=O)Nc2nc(-c3ccccn3)c[nH]2)c(C)c1 [Compound 14, 2-[mesityl(methyl)amino]-N-[4-(pyridin-2-yl)-1H-imidazol-2-yl]acetamide] | 4 µM | 3070 µg/mL (≈ 8.79 mM) | 519 ng/100 μg | 370 ng/100 μg | 44.5 ± 3.4 days | 42.2 ± 4.5 days | 42.5 ± 2.9 days | significant survival benefit | no significant change of ambulation | relatively retained |  | 
